One data set relates to HL-60 (leukemia). Briefly: Cancer cell death assay (LDH release), leukemia line. Type of data set: cell-based, human. To be noted: compound alone, 24 hours. As for the experimental part:
(§1) FIG. 4 is a graph showing the relationship between LDH released and the concentration of NCO-700 in cancer cell death assays of human cancer cell lines MCF-7 (breast), HL-60 (leukemia), and HEP-129 (liver).
(§2) 1. Cancer Cell Death Assay
(§3) Cell death was measured quantitatively by the release of a marker intracellular enzyme, lactate dehydrogenase (LDH), from damaged or killed cells. LDH released into the extracellular fluid, was measured 24 hours after drug exposure to cancer cells and the enzyme activity was determined by the method of Decker et al. (J. Immunolog Methods 15:61-99, 1988).
(§4) All cell lines used in the present study were obtained from the American Type Tissue Culture Laboratory and cultured according to their specifications. All were human cancer lines unless otherwise noted. The following cell lines and their tissue of origin used in our studies were:
(§5) The first assays performed measured the anti-neoplastic activity of NCO-700, alone, in cell death assays of a wide variety of human cancer cells. The results of these experiments are shown in FIGS. 1-6, where a dose-response curve of NCO-700 versus % LDH release is plotted, with higher values of LDH released indicating greater anti-neoplastic activity (apoptosis).
(LDH leaks from cells whose membrane has failed.)

The subject of the next data set is LS-174T (colon). As to the kind of experiment: Cancer cell survival assay, LS-174T. Format: cell-based, human. The conditions noted are these: seven days, alone. How it is done:
(§6) Cell survival was assayed in cultured tumor cells. From 500-1000 cells per well were plated in 24-welled culture dishes and exposed to drug for seven days. After drug exposure, a computerized cell imaging technique was utilized to ascertain the number of viable cells remaining in each culture. From the data, survival curves were plotted and a ED50 (drug concentration that permits 50% cell survival) were calculated.
(§7) The cancer cell survival assay is an important additional in vitro assay to assess the anti-neoplastic activity of compounds as the cells are given a prolonged exposure (seven days) to the drug. FIGS. 9-16 show the effect of increasing the dose of NCO-700 on the survival of a number of cancer cell lines. […] In the figures, the vertical axis is the object area, which is the number of surviving cancer cells calculated by a computer.

The test system of a further data set is LN (prostate). As to the kind of experiment: Cancer cell survival assay, LN. Type of data set: cell-based, human. The conditions noted are these: seven days, alone. As for the experimental part: as §6, §7
A further data set has as its system PC-3 (prostate). Briefly: Cancer cell survival assay, PC-3. Format: cell-based, human. The conditions noted are these: PC-3, seven days, alone. How it is done: as §6, §7
Data set [1] has as its system DU-145 (prostate). As to the kind of experiment: Cancer cell death assay, NCO-700 versus Calpain inhibitor 1. Format: cell-based, human. As for the experimental part:
as §3
Based on Experiment 1 above, the anti-cancer activity of NCO-700 and Calpain inhibitor 1 (N-acetyl-leu-leu-norleucinal, C20 H37 N3 O4) was tested in cancer cell death assays of human cancer cell line DU-145.

The subject of a further data set is HEP-129 (liver). As to the kind of experiment: Cancer cell death assay (LDH release), liver line. Format: cell-based, human. To be noted: compound alone, 24 hours. As for the experimental part:
as §1, §2, §3, §4, §5

A further data set has as its system KB-V-1 (resistant). Briefly: Cell survival assay with vinblastine, resistant cells. Type of data set: cell-based, human. To be noted: for IC50: Homo sapiens, KB-V1. As for the experimental part:
(§8) where the effect of NCO-700 to enhance cancer cell killing by vinblastine was measured.
(§9) In the first two in vitro assays, the drug accumulation assay and the cell survival assay, a human pharyngeal carcinoma cell line (KB-V-1) which is highly resistant to anticancer drugs was used. This cell line was developed by Drs. Ira Pastan and Michael Gottesman of the National Cancer Institute, by step-wise selection in colchicine of drug-resistant cells. The control cancer cell line (KB-3), from which the resistant cell lines were derived, is sensitive to anticancer drugs. The resistant KB-V-1 cell line is approximately 275 times more resistant to vinblastine than the sensitive KB-3 line and has a greatly amplified mdr gene which generates the observed resistance.
(§10) The cell survival experiments shown above were performed by plating KB-3 (sensitive) and KB-V-1 (resistant) cells in 32 mm well plastic dishes at a cell density of 300-500 cells per well. Vinblastine and NCO-700 were added 16 hours after the initial cell plating. After 10 days of incubation at 37°, cell colonies were stained and counted.

For the next data set, the system named is kidney tumor cells. Briefly: Human tumor biopsy assay, kidney tumor. Format: cell-based. To be noted: 20 μM NCO-700 and 0.5 mg/ml adriamycin, 1 hour. As for the experimental part:
(§11) 4. Human Tumor Biopsy Assays
(§12) where the effect of NCO-700 to enhance killing, by either vinblastine or adriamycin, of cancer cells cultured directly from patient's tumors (Von Hoff et al., Cancer Res. 43:1926-1931, 1983).
(§13) For the tumor biopsy assay, primary cell cultures were propagated directly from tumor specimens removed from patients. The cells were grown in suspension culture, treated with adriamycin or vinblastine plus NCO-700, and plated onto soft agar and incubated for two weeks before cell survival was determined.
(§14) In a final series of experiments, the effect of NCO-700 on survival of cells cultured directly from biopsied patient tumors was performed. This technique, referred to as a human tumor cloning system, was developed by Von Hoff and associates (Von Hoff et al., Cancer Res. 43:1926-1931, 1983) and was used clinically to predict the course of chemotherapy for these patients. In this method, tumor biopsies were separated into cell suspensions and treated for 1 hour with either 0.4 mg/ml vinblastine (VLB) or 0.5 mg/ml adriamycin (ADR) plus or minus 20 μM NCO-700. The cell suspensions were washed after one hour of incubation and plated with soft agar. After 14 days of incubation at 37°, the percent of colonies surviving was scored. […] In particular, the survival of tumor cells decreased to approximately 1/2 to 1/3 after exposure to NCO-700 and adriamycin. […]

Another data set has as its system KB-3 (sensitive). Briefly: Cell survival assay with vinblastine, sensitive cells. Type of data set: cell-based, human. How it is done:
as §8, §9, §10

For a further data set, the system named is human tumor cells. As to the kind of experiment: Human tumor biopsy assay, tumors in general. Type of data set: cell-based. To be noted: 20 μM NCO-700 plus vinblastine or adriamycin. How it is done: as §11, §12, §13, §14
Data set [2] concerns DU-145 (prostate). Briefly: Cancer cell survival assay, DU-145. Type of data set: cell-based, human. To be noted: DU-145, seven days, alone. How it is done: as §6, §7
For data set [3], the system named is prostate cancer cell lines. As to the kind of experiment: Cancer cell death assay (LDH release), prostate lines. To be noted: compound alone, 24 hours. Type of data set: cell-based, human. As for the experimental part:
as §2, §3, §4, §5
In FIG. 8, a dose-response curve is shown of the effect of TOP-008 on the killing of breast, prostate and colon cell lines.

A short description of data set [4]: Acute toxicity test, i.v. (LD50). The conditions noted are these: rat, in vivo, iv, rats. The source says:
This non-toxicity of the compounds makes it possible to administer the compounds to patients daily for a long period of time without interruption, without significant side effects, until the cancer tumors are suppressed. The non-toxicity, the apoptotic effects and the reversal of multidrug resistance of the compounds will change the procedures of conventional chemotherapy completely.

Here are results for one compound from patent publication US6054437A, “Method for inducing death of neoplastic cells using piperazine derivatives” (Hitachi Chemical Research Center, Inc., priority 1997, dated 2000).

Entries after “also recorded” stand apart in the source; their conditions may differ. Where a name gives a salt, the structure may show the parent alone. Read-outs that look alike come from different tables or passages of the source.

The LD50 is the dose expected to kill half of the subjects tested. Read a high LD50 as a less toxic substance. Take `CCOC(=O)[C@@H]1O[C@H]1C(=O)N[C@@H](CC(C)C)C(=O)N1CCN(Cc2ccc(OC)c(OC)c2OC)CC1` [NCO-700, Bis[ethyl (2R,3R)-3-[(S)-3-methyl-1-[4-(2,3,4-trimethoxyphenylmethyl)piperazin-1-ylcarbonyl]butylcarbamoyl]oxirane-2-carboxylate] Sulfate]: the “anti-neoplastic activity (LDH release)” value in the data set with HL-60 (leukemia) is listed as “did not respond”; with HEP-129 (liver), “did not respond”; in data set [3] it was “the cell lines that were testosterone receptor negative (and more malignant) responded very well”. In addition, the “anti-neoplastic activity (cell survival)” value with LS-174T (colon), with LN (prostate), in the data set on PC-3 (prostate) and in the data set with DU-145 (prostate) [2] was “significant anti-neoplastic activity” throughout. In the data set with DU-145 (prostate) [1] (DU-145, 100 μM), the “potency relative to Calpain inhibitor 1” value was about 10 fold. The “anti-cancer activity compared with Calpain inhibitor 1” value in the data set with DU-145 (prostate) [1] (DU-145, FIG. 33) is “clearly superior to the other inhibitor”. The IC50 with KB-V-1 (resistant) (KB-V-1, + 25 μM NCO-700, read-out: vinblastine to kill 50% of cells) amounted to 0.148 µg/mL; with KB-V-1 (resistant) (KB-V-1, + 30 μM NCO-700, read-out: level of vinblastine needed to kill 50% of the tumor cells) it was 0.16 µg/mL; with KB-3 (sensitive) (Homo sapiens, KB-3, + 25 μM NCO-700, read-out: vinblastine to kill 50% of cells), 0.0016 µg/mL. In addition, the “enhancement of killing of resistant cells by vinblastine” value in the data set with KB-V-1 (resistant) (drug-resistant cells, with vinblastine) is listed as “enhanced killing of the drug-resistant cells; also recorded: dramatic effect; also recorded: highly significant increase in the killing of these cancer cells”. In the data set on kidney tumor cells, the “survival of tumor cells decreased to (fraction)” value is given as “approximately 1/4”. The “enhancement of killing by vinblastine” value in the data set with KB-3 (sensitive) (sensitive KB-3 cells) is “slight enhancement of the killing of sensitive KB-3 cells”. Also, the “activity in inhibiting survival / sensitizing human tumor cells” value in the data set on human tumor cells is recorded as “significant activity in inhibiting the survival of certain human tumor cells; also recorded: excellent activity in sensitizing to anticancer drugs”. Further, in the data set on human tumor cells, the “response of all other tumors” value is on record as “varying degrees of positive response”. For the same compound, the LD50 in [4] came out at 317 mg/kg.
